“Also recorded” adds a separate entry of the source.
Legend:
8505C cells [1] = experiment: Drug synergy by coefficient of drug interaction (SRB assay); format: cell-based, human; conditions: for drug interaction with 6-AN (coefficient of drug interaction class): combination with 6-AN (PPP inhibition)
Procedure: In Vitro Cell Staining for Measuring Drug Efficacy—Thyroid cells (4.0×10^3) were seeded in 96 well plates with 100 μl CTM and allowed to adhere overnight. 100 μl of CTM containing 2× concentration of compound was overlayed in each well for 48 hours unless otherwise indicated. Each well then received 100 μl of 10% w/v cold trichloroacetic acid (Fisher) and incubated at 4° C. for 1 hour to fix the cells. Each well was rinsed 3× with DI H2O and stained with 100 μl 0.057% w/v sulforhodamine B (SRB, Sigma-Aldrich) for 30 minutes at room temperature in the dark. Wells were washed 4× with 300 μl 1% v/v acetic acid (Fisher), and remaining SRB stain was solubilized with 200 μl of 10 mM Tris buffer, pH 10.5 (Fisher). Absorbance was measured at 564 nm with a Synergy 2 Multi-Detection Microplate Reader (Agilent Technologies) and normalized to a vehicle control. Drug synergy was evaluated using the coefficient of drug interaction (CDI) formula: CDI=AB/(A×B)×100, where AB is the percent remaining cells of an indicated combination treatment, A is the average percent remaining cells of agent 1 alone, and B is the average percent remaining cells of agent 2 alone. […] Hao et al., “Effect of Lumiracoxib on Proliferation and Apoptosis of Human Nonsmall Cell Lung Cancer Cells In vitro,” Chin Med J (Engl) 121:602-607 (2008), which is hereby incorporated by reference in its entirety.

8505C tumors = experiment: 8505C xenograft tumor growth in nude mice; format: in vivo, mouse; conditions: intraperitoneal, 50 mg/kg CP-91,149, 10 mg/kg sorafenib, 6-7 days a week
Procedure: Ethics statement and animal modeling—All animal procedures were approved by Institutional Animal Care and Use Committee (IACUC) at the University of Vermont. All animals were maintained in pathogen-free conditions and cared for in accordance with IACUC policies and certification. All surgeries were performed with isoflurane anesthesia. Temperature-controlled post-surgical monitoring was implemented to minimize suffering. Mice carrying anaplastic thyroid tumors were euthanized at designated time points for tumor collection. Signs of ulceration or a maximum individual tumor size of 2000 mm^3 were used as a protocol-enforced endpoint.
Mice were given food and water ad libitum. […] These doses were based on previous reports.

HepG2 cells = conditions: HepG2 cells; cited from earlier work
[2] = system: Pancreatic adenocarcinoma cells; conditions: cited from earlier work
ATC = conditions: in vitro; cited from earlier work
8505C cells [3] = experiment: SRB cell viability assay in ATC cells; format: cell-based, human; conditions: for cell viability of CP-treated cells with the exogenous agent: 8505C cells treated with CP-91,149
Procedure: In Vitro Cell Staining for Measuring Drug Efficacy—Thyroid cells (4.0×10^3) were seeded in 96 well plates with 100 μl CTM and allowed to adhere overnight. 100 μl of CTM containing 2× concentration of compound was overlayed in each well for 48 hours unless otherwise indicated. Each well then received 100 μl of 10% w/v cold trichloroacetic acid (Fisher) and incubated at 4° C. for 1 hour to fix the cells. Each well was rinsed 3× with DI H2O and stained with 100 μl 0.057% w/v sulforhodamine B (SRB, Sigma-Aldrich) for 30 minutes at room temperature in the dark. Wells were washed 4× with 300 μl 1% v/v acetic acid (Fisher), and remaining SRB stain was solubilized with 200 μl of 10 mM Tris buffer, pH 10.5 (Fisher). Absorbance was measured at 564 nm with a Synergy 2 Multi-Detection Microplate Reader (Agilent Technologies) and normalized to a vehicle control. Drug synergy was evaluated using the coefficient of drug interaction (CDI) formula: CDI=AB/(A×B)×100, where AB is the percent remaining cells of an indicated combination treatment, A is the average percent remaining cells of agent 1 alone, and B is the average percent remaining cells of agent 2 alone. […] Hao et al., “Effect of Lumiracoxib on Proliferation and Apoptosis of Human Nonsmall Cell Lung Cancer Cells In vitro,” Chin Med J (Engl) 121:602-607 (2008), which is hereby incorporated by reference in its entirety. […]

8505C cells [4] = experiment: Reactive oxygen species quantification (H2DCFDA); format: cell-based, human; conditions: for ROS in CP-treated cells with the exogenous agent: 8505C cells treated with CP-91,149
Procedure: Quantification of Reactive Oxygen Species—Thyroid cells (1.0-2.0×10^4) were seeded in a black 96 well plate in 200 μl CTM and allowed to adhere overnight. Wells were washed with PBS and incubated with or without 25 μM H2DCFDA for 45 minutes at 37° C. in a non-CO2 incubator with compounds of interest diluted in phenol-red free RPMI (supplemented with 2 mM glutamine and 10% charcoal-stripped serum). Wells were washed with PBS and received compounds of interest diluted in phenol-red free, supplemented RPMI and incubated at 37° C. in a SpectraMax M4 Microplate Reader (Molecular Devices) to record fluorescent measurements (Ex/Em=485/535 nm) every 15 minutes overnight. Maximum fluorescence intensity was determined (~6 hours), background signal (—H2DCFDA) was subtracted from each group, and corrected values were normalized to the vehicle control.

8505C cells [5] = experiment: Metabolic flux analysis (Seahorse ECAR and OCR); format: cell-based, human; conditions: 8505C cells
Procedure: Metabolic Flux Analysis—Thyroid cells (5.0×10^4) were plated in a 96 well Seahorse culture plate with compounds of interest diluted in 200 μl CTM for 24 hours. Cells were washed with PBS and equilibrated for 1 hour at 37° C. in a non-CO2 incubator with compounds of interest diluted in Seahorse RPMI (supplemented with 11.1 mM glucose, 2 mM glutamine, and 5% serum) before analysis of OCR and ECAR in a Metabolic Flux Analyzer (Seahorse Bioscience, North Billerica, MA 96XP).

ATC xenograft = conditions: cited from earlier work
[6] = ATC cell viability, combination with CP-91,149

SMILES: COc1cc2nccc(Oc3ccc(NC(=O)NC4CC4)c(Cl)c3)c2cc1C(N)=O [lenvatinib, 4-[3-chloro-4-(cyclopropylcarbamoylamino)phenoxy]-7-methoxyquinoline-6-carboxamide]
- drug interaction with CP-91,149 (coefficient of drug interaction class) (8505C cells [1]; [6]): drug additivity rather than synergy

SMILES: O=C(O)C(=O)CBr [3-BP, 3-bromopyruvic acid]
- drug interaction with CP-91,149 (coefficient of drug interaction class) (8505C cells [1]; [6]): failed to achieve synergy

SMILES: CNC(=O)c1cc(Oc2ccc(NC(=O)Nc3ccc(Cl)c(C(F)(F)F)c3)cc2)ccn1 [sorafenib, 4-[4-[[4-chloro-3-(trifluoromethyl)phenyl]carbamoylamino]phenoxy]-N-methylpyridine-2-carboxamide]
- drug interaction with 6-AN (coefficient of drug interaction class) (8505C cells [1]; 8505C cells, 48 hours): drug synergy; also recorded: synergistic
- drug interaction with inhibition of glycolysis (8505C cells [1]; 8505C cells, 48 hours): not glycolysis
- drug interaction with CP-91,149 (coefficient of drug interaction class) (8505C cells [1]; [6]): high degree of drug synergy; also recorded: profound drug synergy
- tumor growth (8505C tumors): notably stunted
- synergy with CP-91,149 (HepG2 cells): displayed synergy

SMILES: Nc1cc(C(F)(F)F)c(-c2cc(N3CCOCC3)nc(N3CCOCC3)n2)cn1 [buparlisib, 5-(2,6-dimorpholin-4-ylpyrimidin-4-yl)-4-(trifluoromethyl)pyridin-2-amine]
- drug interaction with CP-91,149 (coefficient of drug interaction class) (8505C cells [1]; [6]): drug additivity rather than synergy

SMILES: O=C(N[C@@H](Cc1ccc(F)cc1)C(=O)N1CCC(O)CC1)c1cc2cc(Cl)ccc2[nH]1 [CP-320626, 5-chloro-N-[(2S)-3-(4-fluorophenyl)-1-(4-hydroxypiperidin-1-yl)-1-oxopropan-2-yl]-1H-indole-2-carboxamide]
- cellular metabolism [2]: inhibited cellular respiration, the PPP, anaplerosis, and synthesis of ribose and fatty acids
- sensitivity of cells [2]: sensitive

SMILES: CN(C)C(=N)N=C(N)N [metformin]
- ATC proliferation (ATC): limit ATC proliferation in vitro

SMILES: COc1cccc2c1C(=O)c1c(O)c3c(c(O)c1C2=O)C[C@@](O)(C(=O)CO)C[C@@H]3O[C@H]1C[C@H](N)[C@H](O)[C@H](C)O1 [doxorubicin]
- drug interaction with CP-91,149 (coefficient of drug interaction class) (8505C cells [1]; [6]): did not achieve synergy

SMILES: NC(=O)C1=CN([C@@H]2O[C@H](COP(=O)(O)OP(=O)(O)OC[C@H]3O[C@@H](n4cnc5c(N)ncnc54)[C@H](OP(=O)(O)O)[C@@H]3O)[C@@H](O)[C@H]2O)C=CC1 [NADPH]
- cell viability of 2-DG-treated cells with the exogenous agent (8505C cells [3]; 8505C cells treated with 2-DG, 48 hours, replete media): only rescued cell viability in the CP-treated cells
- cell viability of CP-treated cells with the exogenous agent (8505C cells [3]): partially rescued; also recorded: only rescued cell viability in the CP-treated cells; also recorded: can rescue ATC cells from CP-mediated loss in cell viability
- ROS in 2-DG-treated cells with the exogenous agent (8505C cells [4]; 8505C cells treated with 2-DG, replete media): reduced ROS in both treatment groups
- ROS in CP-treated cells with the exogenous agent (8505C cells [4]): ablated; also recorded: reduced ROS in both treatment groups; also recorded: attenuated

SMILES: O=CC[C@@H](O)[C@H](O)[C@H](O)CO [2-DG, 2-deoxyglucose]
- cell viability with excess (2 mM) pyruvate (8505C cells [3]; 8505C cells, 48 hours): could be rescued
- cell viability with excess (25 mM) glucose (8505C cells [3]; 8505C cells, 48 hours): rescued cell viability
- cell viability with pyruvate depletion (8505C cells [3]; 8505C cells, 48 hours): only significantly impacted the 2-DG-treated cells
- extracellular acidification rate (ECAR) (8505C cells [5]): significantly inhibited
- reactive oxygen species (ROS) levels (8505C cells [4]; 8505C ATC cells): only modestly increased ROS levels
- ROS levels with excess glucose (8505C cells [4]; 8505C cells): only in CP-treated cells
- drug interaction with 6-AN (coefficient of drug interaction class) (8505C cells [1]; 8505C cells, 48 hours): drug antagonism
- CDI values in combination with CP-91,149 (8505C cells [1]; [6]): ~1.0
- drug interaction with CP-91,149 (coefficient of drug interaction class) (8505C cells [1]; [6]): drug additivity
- lactate production (ATC xenograft): reduced lactate production
- tumor size (ATC xenograft): failed to significantly reduce tumor size

SMILES: CC(=O)N[C@@H](CS)C(=O)O [N-acetylcysteine]
- cell viability of CP-treated cells with the exogenous agent (8505C cells [3]; listed as N-acetyl cysteine): can rescue ATC cells from CP-mediated loss in cell viability
- cell viability of CP-treated cells with the exogenous agent (8505C cells [3]; listed as NAC): partially rescued
- ROS in CP-treated cells with the exogenous agent (8505C cells [4]): ablated
- ROS in CP-treated cells with the exogenous agent (8505C cells [4]; listed as N-acetyl cysteine): attenuated

SMILES: CC(=O)c1c(C)c2cnc(Nc3ccc(N4CCNCC4)cn3)nc2n(C2CCCC2)c1=O [palbociclib, 6-acetyl-8-cyclopentyl-5-methyl-2-[(5-piperazin-1-ylpyridin-2-yl)amino]pyrido[6,5-d]pyrimidin-7-one]
- drug interaction with CP-91,149 (coefficient of drug interaction class) (8505C cells [1]; [6]): did not achieve synergy

SMILES: NC(=O)c1ccc(N)nc1 [6-AN, 6-aminonicotinamide]
- drug interaction with CP-91,149 (coefficient of drug interaction class) (8505C cells [1]; [6]): remarkable drug synergy
